# Results reported in patent US12441775B2, “BCL-W polypeptides and mimetics for treating or preventing chemotherapy-induced peripheral neuropathy and hearing loss” (Dana-Farber Cancer Institute, Inc., priority 2016, dated 2025).
# Legend:
# E15 DRG sensory neurons = assay: Apoptosis analysis (condensed/total nuclei) in cell body compartment; type: cell-based, rat; details: paclitaxel to either subcellular compartment
# Description: Cell culture. Compartmented chamber (Campenot) cultures were prepared as described (see, e.g., Fenstermacher et al., Springer Protocols: Neuromethods, 103:105-124 (2015)), with modifications. Briefly, DRGs from embryonic day 15 (E15) rats of either sex were dissected and trypsinized. DRGs (1.2×10^5 cells) were plated in the center compartment of a Teflon divider (Camp10, Tyler Research; Campenot, 1982) affixed to a p35 culture dish coated with growth factor reduced Matrigel basement membrane (BD Biosciences) 1:45 in DMEM. Cultures were maintained in media consisting of Neurobasal (Invitrogen) with 2% B27 supplement (Invitrogen), 1% penicillin-streptomycin, 1% GlutaMAX (Life Technologies), 0.08% glucose, and 0.3 μM cytosine arabinoside (AraC) at 37° C., 7.5% CO2; BDNF+NGF (PeproTech) were added to the cell body compartment at a concentration of 10 ng/ml and to the axon compartment at a concentration of 100 ng/ml for 2d. On day 3, media was replaced and the AraC was omitted. On day 5, neurotrophins were removed from the cell body compartment and reduced to 1 ng/ml in the axon compartments for 3-5 days. […]
# Axonal degeneration assay. […] Images of distal axon tips were obtained using a 40× air objective, and axonal degeneration was quantified as a degeneration index, as previously described (Cosker et al., Neuroscience, 33:5195-5207 (2013)). […]
# bclw+/+ and bclw−/− mice = assay: Noxious thermal sensation threshold, 50° C. hot-plate; type: in vivo, mouse; details: paclitaxel 4 mg/kg every other day for 8 days
# Description: (§1) Paclitaxel treatment and behavioral testing. 2 month old age-matched bclw−/− and bclw+/+ mice (17-30 g) of either sex were injected intraperitoneally (IP) with 4 mg/kg paclitaxel (Bristol-Myers Squibb) every other day for 8 days (4 total injections). Paclitaxel was prepared as 1 part 6 mg/ml paclitaxel stock solution diluted in vehicle (1:1 v/v Cremophor EL [EMD Millipore] and dehydrated ethanol) and 2 parts sterile saline and injected at 10 μl/g. Control mice were injected with 1 part vehicle and 2 parts saline. […] For three days prior to the baseline testing, mice were weighed, trained on an automated RotaRod apparatus (4 rpm for 1 min without falling), and habituated in von Frey cages. The next two days, baseline behavioral performance was assessed and averaged. The first paclitaxel injection was given three days later, and mice were weighed and behaviorally tested 10 days after the final injection. To assay motor function, mice were placed on the RotaRod with a ramp of 4-40 rpm and 0.4 rpm/sec acceleration, and latency to fall was measured. […] Withdrawal threshold was determined to be the applied force at which the animal withdrew the stimulated paw on at least 2 of 10 applications. […] Mouse behavior was assessed by an experimenter blind to genotype and condition.
# mice = assay: Epidermal footpad innervation (Tuj1-positive intraepidermal nerve fibers); type: in vivo, mouse
# Description: as §1
# Epidermal footpad innervation. […] Images were acquired and quantified in NIH ImageJ by an experimenter blind to condition.
# calpain = assay: Calpain protease activity luminescence assay; type: cell-based, rat; details: DRG neurons treated 48 hours with paclitaxel, normalized to DMSO
# Description: Calpain protease activity luminescence assay. DRG neurons in mass cultures were treated with vehicle (0.1% DMSO for 48h), paclitaxel (30 nM, 600 nM, or 1.2 μM for 48 hours), or calcium chloride (3 mM for 24 hours). Cultures were harvested in 1× Passive Lysis Buffer (Promega). The resulting lysate was spun 10,000×g for 5 min at 4° C., and 50 μL supernatant was combined with 50 μL Calpain-Glo Reagent (Promega) in a 96 well plate. The plate was shaken briefly and incubated for 40 min in the dark; luminescence intensity was measured with a microplate reader and normalized to protein concentration.
smiles,measurement,setting,value
CC(=O)O[C@H]1C(=O)[C@@]2(C)[C@H]([C@H](OC(=O)c3ccccc3)[C@]3(O)C[C@H](OC(=O)[C@H](O)[C@@H](NC(=O)c4ccccc4)c4ccccc4)C(C)=C1C3(C)C)[C@]1(OC(C)=O)CO[C@@H]1C[C@@H]2O [paclitaxel],cell body apoptosis assessed by nuclear condensation,E15 DRG sensory neurons,did not induce cell body apoptosis
same,thermal pain sensitivity (hot-plate),bclw+/+ and bclw−/− mice; bclw+/+ mice,mild thermal hyperalgesia
same,thermal pain sensitivity (hot-plate),bclw+/+ and bclw−/− mice; bclw−/− mice,more severe thermal pain sensitivity
same,intraepidermal nerve fiber number of the hindpaw,"mice; bclw−/− compared to bclw+/+ mice, thick and thin skin",greater reduction in intraepidermal nerve fiber number
same,thick skin epidermal innervation,mice; paclitaxel-treated compared with control mice (Example 12),decreased thick skin epidermal innervation
same,calpain activity (luminescence),calpain,increased calpain activity in a dose-dependent manner
